From PubChem BioAssay (NCI)
“And” between values parts separate entries of the source, which are not always exact repeats. Equal entries are not always repeated.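 Exposure lasted 48 hours, with cells grown in 96-well plates and compounds tested at five concentrations. Here, GI50 denotes the concentration required for 50% inhibition of growth. At the TGI there is no net growth.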

Tests used:
Assay in all cases: NCI-60 cell line screen, 48 h; in the data active = GI50 below about 0.43 µM; inactive = the rest
HT29 colon = test system: HT29 colon
M14 melanoma = test system: M14 melanoma
ACHN renal = test system: ACHN renal
HL-60(TB) leukemia = test system: HL-60(TB) leukemia
HCT-15 colon = test system: HCT-15 colon
OVCAR-8 ovarian = test system: OVCAR-8 ovarian
UO-31 renal = test system: UO-31 renal
SW-620 colon = test system: SW-620 colon
MDA-N = test system: MDA-N
T-47D breast = test system: T-47D breast

CC(C)(C)OC(=O)N[C@H]1CC(=O)c2ccccc2N(CC(=O)O)C1=O
> 100 µM: TGI (HT29 colon) | TGI (M14 melanoma) | TGI (ACHN renal) | TGI (HL-60(TB) leukemia) | TGI (HCT-15 colon) | TGI (OVCAR-8 ovarian) | TGI (UO-31 renal) | TGI (SW-620 colon)

COC(=O)c1c(O)ccc2c1c1c(n2Cc2ccc(OC)cc2)C(=O)c2ccccc2C1
47.4 µM: TGI (HT29 colon)
> 100 µM: TGI (M14 melanoma) | TGI (HL-60(TB) leukemia) | TGI (MDA-N) | TGI (HCT-15 colon) | TGI (OVCAR-8 ovarian) | TGI (UO-31 renal) | TGI (SW-620 colon)

COc1ccc(O[C@H](CO)C[C@@H]2COC(C)(C)O2)cc1
> 100 µM: TGI (HT29 colon) | TGI (M14 melanoma) | TGI (ACHN renal) | TGI (MDA-N) | TGI (HCT-15 colon) | TGI (OVCAR-8 ovarian) | TGI (UO-31 renal) | TGI (SW-620 colon)

COc1ccc(C(=CCC(C)C2CCC3[C@@H]4C(OC(C)=O)CC5CC(OC(C)=O)CC[C@]5(C)C4CC(OC(C)=O)[C@]23C)c2ccc(OC)cc2)cc1 (stereo not given in full)
> 100 µM: TGI (HT29 colon) | TGI (M14 melanoma) | TGI (ACHN renal) | TGI (HCT-15 colon) | TGI (OVCAR-8 ovarian) | TGI (UO-31 renal) | TGI (T-47D breast) | TGI (SW-620 colon)
45.3 µM: TGI (HL-60(TB) leukemia)

Cc1ccc(S(=O)(=O)OCCN(CCOS(=O)(=O)c2ccc(C)cc2)c2ccc(C=O)cc2)cc1
41.3 µM: TGI (UO-31 renal)
> 100 µM: TGI (HT29 colon) | TGI (M14 melanoma) | TGI (ACHN renal) | TGI (HL-60(TB) leukemia) | TGI (HCT-15 colon) | TGI (OVCAR-8 ovarian) | TGI (T-47D breast) | TGI (SW-620 colon)

CN1CCCc2nc3ccccc3n2C1
> 100 µM: TGI (HT29 colon) | TGI (M14 melanoma) | TGI (ACHN renal) | TGI (HL-60(TB) leukemia) | TGI (HCT-15 colon) | TGI (OVCAR-8 ovarian) | TGI (UO-31 renal) | TGI (SW-620 colon)

NCCCNc1nc2ccccc2c2c(=O)c3cc(Cl)ccc3sc12
2.58 µM: TGI (UO-31 renal)
inactive: GI50 (HT29 colon) 1.72 µM | GI50 (ACHN renal) 1.57 µM | GI50 (UO-31 renal) 1.28 µM
3.18 µM: TGI (HT29 colon)
2.92 µM: TGI (ACHN renal)

Cc1cc(-c2ccc(N=Nc3ccc4c(S(=O)(=O)O)cc(S(=O)(=O)O)c(N)c4c3O)c(C)c2)ccc1N=Nc1ccc2c(S(=O)(=O)O)cc(S(=O)(=O)O)c(N)c2c1O
> 100 µM: TGI (HT29 colon) | TGI (HL-60(TB) leukemia) | TGI (HCT-15 colon) | TGI (OVCAR-8 ovarian) | TGI (UO-31 renal) | TGI (SW-620 colon)

N#Cc1cc(F)cc(Oc2ccc(S(=O)(=O)C(F)F)c3c2CC(F)(F)[C@H]3O)c1
inactive: GI50 (HT29 colon) 39.3 µM | GI50 (M14 melanoma) 30.1 µM | GI50 (ACHN renal) 30.4 µM | GI50 (HL-60(TB) leukemia) 27.4 µM | GI50 (HCT-15 colon) 29.2 µM | GI50 (OVCAR-8 ovarian) 33.8 µM | GI50 (UO-31 renal) 15.1 µM | GI50 (T-47D breast) 16.3 µM | GI50 (SW-620 colon) 55.3 µM
87.2 µM: TGI (HL-60(TB) leukemia)
69.9 µM: TGI (UO-31 renal)
> 100 µM: TGI (HT29 colon) | TGI (M14 melanoma) | TGI (ACHN renal) | TGI (HCT-15 colon) | TGI (OVCAR-8 ovarian) | TGI (T-47D breast) | TGI (SW-620 colon)

O=c1[nH]ncc2[nH]c3c(c12)CCc1ccccc1-3
> 100 µM: TGI (HT29 colon) | TGI (M14 melanoma) | TGI (ACHN renal) | TGI (HCT-15 colon) | TGI (OVCAR-8 ovarian) | TGI (UO-31 renal) | TGI (SW-620 colon)
98.9 µM: TGI (T-47D breast)
69 µM: TGI (HL-60(TB) leukemia)

CC1CC(c2ccccc2)=Nc2ccccc2S1 (stereo not given)
> 100 µM: TGI (HT29 colon) | TGI (M14 melanoma) | TGI (ACHN renal) | TGI (HL-60(TB) leukemia) | TGI (HCT-15 colon) | TGI (OVCAR-8 ovarian) | TGI (UO-31 renal) | TGI (SW-620 colon)

COCOC1CCCC[C@@]1(OCCOCCO[C@@]1(c2ccccc2)CCCC[C@H]1OCOC)c1ccccc1 (stereo not given in full)
> 100 µM: TGI (HT29 colon) | TGI (M14 melanoma) | TGI (ACHN renal) | TGI (HL-60(TB) leukemia) | TGI (OVCAR-8 ovarian) | TGI (UO-31 renal) | TGI (SW-620 colon)

CC(=O)C1(C(=O)C(=[N+]=[N-])S(=O)(=O)c2ccccc2)CC1
> 100 µM: TGI (HT29 colon) | TGI (M14 melanoma) | TGI (ACHN renal) | TGI (HL-60(TB) leukemia) | TGI (MDA-N) | TGI (HCT-15 colon) | TGI (OVCAR-8 ovarian) | TGI (UO-31 renal) | TGI (SW-620 colon)

CC(C)C(NCc1c2ccccc2[n+](C)c2ccccc12)C(=O)O (stereo not given)
10.3 µM: TGI (HT29 colon)
> 21 µM: TGI (HL-60(TB) leukemia)
18.8 µM: TGI (SW-620 colon)
13.9 µM: TGI (HCT-15 colon)
21.7 µM: TGI (UO-31 renal)
15.1 µM: TGI (OVCAR-8 ovarian)
16.4 µM: TGI (ACHN renal)
16 µM: TGI (M14 melanoma)

Nc1c(C(=O)O)c2ccc([N+](=O)[O-])cc2c(=O)n1-c1nc2ccccc2s1
> 100 µM: TGI (HT29 colon) | TGI (M14 melanoma) | TGI (ACHN renal) | TGI (MDA-N) | TGI (HCT-15 colon) | TGI (OVCAR-8 ovarian) | TGI (UO-31 renal) | TGI (T-47D breast) | TGI (SW-620 colon)

COc1cccc2c(=O)oc(-c3ccccc3C)nc12
39.1 µM: TGI (MDA-N)
> 100 µM: TGI (HT29 colon) | TGI (ACHN renal) | TGI (HL-60(TB) leukemia) | TGI (HCT-15 colon) | TGI (OVCAR-8 ovarian) | TGI (UO-31 renal) | TGI (T-47D breast) | TGI (SW-620 colon)

COC(=O)C(Cc1ccccc1)NC(=O)C(CNC(=O)OCc1ccccc1)C(=O)OCc1ccccc1 (stereo not given)
> 100 µM: TGI (HT29 colon) | TGI (HL-60(TB) leukemia) | TGI (MDA-N) | TGI (HCT-15 colon) | TGI (OVCAR-8 ovarian) | TGI (UO-31 renal) | TGI (T-47D breast)
> 100 µM and 26.8 µM: TGI (M14 melanoma)
inactive: GI50 (M14 melanoma) > 100 µM and 10.2 µM | GI50 (HL-60(TB) leukemia) > 100 µM and 21.6 µM

COC1=C(OC)C(=O)C(Cc2c(Cl)nc3sccn23)=C(C)C1=O
6.98 µM: TGI (HL-60(TB) leukemia)
23.6 µM: TGI (UO-31 renal)
27.7 µM: TGI (HT29 colon)
27.2 µM: TGI (HCT-15 colon)
30.4 µM: TGI (SW-620 colon)
27.8 µM: TGI (ACHN renal)
26.2 µM: TGI (OVCAR-8 ovarian)
24.3 µM: TGI (M14 melanoma)
17.8 µM: TGI (T-47D breast)

CN1C(c2ccccc2)CC(O)CC1c1ccccc1 (stereo not given)
> 100 µM: TGI (HT29 colon) | TGI (M14 melanoma) | TGI (ACHN renal) | TGI (HL-60(TB) leukemia) | TGI (HCT-15 colon) | TGI (OVCAR-8 ovarian) | TGI (UO-31 renal) | TGI (SW-620 colon)

CC(=O)c1c(-c2ccc(Cl)cc2)c(C#N)c(=S)n(C2OC(CO)C(O)C(O)C2O)c1C (stereo not given)
86.8 µM: TGI (MDA-N)
54 µM: TGI (HL-60(TB) leukemia)
> 100 µM: TGI (HT29 colon) | TGI (M14 melanoma) | TGI (ACHN renal) | TGI (HCT-15 colon) | TGI (OVCAR-8 ovarian) | TGI (T-47D breast)
6.92 µM: TGI (UO-31 renal)

CC1=NC(=N)N=C(C)C1N=Nc1ccc2nc(C)[nH]c2c1 (stereo not given)
> 100 µM: TGI (HT29 colon) | TGI (M14 melanoma) | TGI (ACHN renal) | TGI (HL-60(TB) leukemia) | TGI (MDA-N) | TGI (HCT-15 colon) | TGI (OVCAR-8 ovarian) | TGI (T-47D breast) | TGI (SW-620 colon)

COc1c(OC2OC(CO)C(O)C(O)C2O)cc2c(c1OC)-c1ccc(OC)c(=O)cc1C(NC(C)=O)CC2 (stereo not given)
> 100 µM: TGI (HT29 colon) | TGI (M14 melanoma) | TGI (ACHN renal) | TGI (HL-60(TB) leukemia) | TGI (HCT-15 colon) | TGI (OVCAR-8 ovarian) | TGI (UO-31 renal) | TGI (SW-620 colon)

C/C(CCN(C)C)=N/O
31.5 µM: TGI (UO-31 renal)
22.3 µM: TGI (ACHN renal)
6.71 µM: TGI (SW-620 colon)
10.3 µM: TGI (HT29 colon)
21.9 µM: TGI (M14 melanoma)
25.1 µM: TGI (HCT-15 colon)
22.8 µM: TGI (OVCAR-8 ovarian)
13.5 µM: TGI (HL-60(TB) leukemia)
